{"source": "patent US10878939B2", "about": "“Methods and compositions for personalized pain management” (Children's Hospital Medical Center, priority 2014, dated 2020)", "origin": "cited, not measured here", "conditions": "other reports; cited from earlier work", "data": [{"smiles": "CN1CC[C@]23c4c5ccc(O[C@@H]6O[C@H](C(=O)O)[C@@H](O)[C@H](O)[C@H]6O)c4O[C@H]2[C@@H](O)C=C[C@H]3[C@H]1C5", "note": "[M3G, Morphine-3-Glucuronide]", "values": [{"measurement": "M3G metabolite formation relative to M6G formation", "value": "7-10 fold"}]}]}
